Earlier results, collected in patent US12596089B2, “Devices, systems, and methods for antimicrobial susceptibility testing” (Avails Medical, Inc., priority 2022, dated 2026).

How the values were obtained:
[1] = system: CDC-846 strain of E. coli; conditions: stated as known
[2] = system: CDC-650 strain of E. coli; conditions: stated as known

For `CO/N=C(\C(=O)N[C@@H]1C(=O)N2C(C(=O)O)=C(CSc3nc(=O)c(=O)[nH]n3C)CS[C@H]12)c1csc(N)n1` [ceftriaxone], the “susceptibility of the bacteria to the anti-infective” value [1] is given as “resistant” and the “susceptibility of the bacteria to the anti-infective” value [2] is given as “highly susceptible”.
